Reference: patent US9096534B2, “Pyridazinone compound and use thereof” (SUMITOMO CHEMICAL COMPANY, LIMITED, priority 2006, dated 2015)

Legend:
Lolium multiflorum = experiment: Post-emergence treatment test in dry field; assay type: in vivo; settings: 500 g/ha; foliar spray at first to second leaf stage; 20 days after treatment; 0 = no effect, 10 = complete death
Experimental: A plastic cup with a diameter of 8 cm and a depth of 6.5 cm was filled with commercially available soil, onto which seeds of Lolium multiflorum were sowed, covered with soil about 0.5 cm high and then grown in a greenhouse. When the plants were grown in first to second leaf stage, a prescribed dosage of a dilute liquid formulation comprising Compound I-a-1 was sprayed to whole plants uniformly. The dilute liquid formulation was prepared by dissolving a prescribed amount of Compound I-a-1 in a dimethylformamide solution (2%) of Tween 20 (polyoxyethylene sorbitan fatty acid ester, from MP Biomedicals, Inc.) and then diluting with deionized water. The plants after treatment with the liquid formulation were grown in a greenhouse and 20 days after the treatment, the efficacy of the compound against Lolium multiflorum was visually evaluated by rating in eleven levels from 0 to 10 (assigned as 0 for no effect and 10 for complete death while values falling in between these values were rated from 1 to 9 levels accordingly).
The other present compounds and Compound A described in J. Heterocycl. Chem., vol. 42, pp. 427-435 (2005) as a comparative example were similarly tested.

Apera spica-venti = experiment: Pre-emergence treatment test in dry field; assay type: in vivo; settings: 500 g/ha; sprayed to soil surface after sowing; three weeks after treatment; 0 = no effect, 10 = complete death
Experimental: A plastic container (32 cm×22 cm×8 cm in height) was filled with soil sterilized by steam, onto which seeds of Apera spica-venti were sowed and covered with soil about 0.5 cm high. A prescribed dosage of a dilute liquid formulation comprising Compound I-a-1 was sprayed to the soil surface uniformly. The dilute liquid formulation was prepared by the method similar to that in Test example 1. The plants after treatment with the liquid formulation were grown in a greenhouse and three weeks after the treatment, the efficacy of the compound against Apera spica-venti was visually evaluated by rating in eleven levels from 0 to 10 similarly to Test example 1.
The other present compounds and Compound A as a comparative example were similarly tested.

## Cc1ccccc1-c1c(O)cnn(C)c1=O [Compound A]
Lolium multiflorum
  efficacy against Lolium multiflorum, visually evaluated by rating in eleven levels from 0 to 10: 1
Apera spica-venti
  efficacy against Apera spica-venti, visually evaluated by rating in eleven levels from 0 to 10: 1
